Earlier results, collected in patent US10806792B2 (Mayne Pharma International Pty Ltd., priority 2012, dated 2020).
Like-named read-outs stand apart in the source and are kept apart here.

Experiments:
[1] = tested on: typical infecting organisms for specific superficial and systemic mycoses; details: for MIC RANGE: in µg/mL

For `CCC(C)n1ncn(-c2ccc(N3CCN(c4ccc(OCC5COC(Cn6cncn6)(c6ccc(Cl)cc6Cl)O5)cc4)CC3)cc2)c1=O` (stereo not drawn) [itraconazole], the “MIC RANGE” value ([1]; A. flavus complex, Aspergillosis) is given as 0.03-8, the “MIC RANGE” value ([1]; A. nidulans complex, Aspergillosis) is given as 0.03-8 and the “MIC RANGE” value ([1]; A. niger complex, Aspergillosis) is given as 0.03-8. For the same compound, the “MIC RANGE” value ([1]; A. terreus complex, Aspergillosis) was 0.03-1, the “MIC RANGE” value ([1]; C. albicans, Candidiasis) was 0.008-8 and the MIC90 ([1]; C. glabrata, Candidiasis) was “MIC90 = 16”. For the same compound, the “MIC RANGE” value ([1]; C. kruset, Candidiasis) was 0.008-8, the “MIC RANGE” value ([1]; C. parapsilosis, Candidiasis) was 0.016-2 and the “MIC RANGE” value ([1]; C. tropicalis, Candidiasis) was 0.03-8. The “MIC RANGE” value ([1]; Epidermophyton floccosum, tinea corporis) was 0.01-8, the “MIC RANGE” value ([1]; Epidermophyton floccosum, tinea cruris) was 0.01-8 and the “MIC RANGE” value ([1]; Epidermophyton floccosum, tinea manuum) was 0.01-8. The “MIC RANGE” value ([1]; Epidermophyton floccosum, tinea pedis) was 0.01-8, the “MIC RANGE” value ([1]; Epidermophyton floccosum, tinea unguium) was 0.01-8 and the “MIC RANGE” value ([1]; Microsporum sp. (audounti, canis, gypseum, ferrugineum et al.), tinea capitis) was 0.01-4. For the same compound, the “MIC RANGE” value ([1]; Microsporum sp. (canis, et al.), tinea cruris) was 0.01-4, the “MIC RANGE” value ([1]; Microsporum sp. (canis, et al.), tinea unguium) was 0.01-4 and the “MIC RANGE” value ([1]; Microsporum sp. (canis, gypseum, et al.), tinea corporis) was 0.01-4. For the same compound, the “MIC RANGE” value ([1]; Microsporum sp. (canis, gypseum, et al.), tinea pedis) was 0.01-4, the “MIC RANGE” value ([1]; Trichophyton sp. (rubrum, interdigitale, mentagrophytes.), tinea manuum) was 0.01-8 and the “MIC RANGE” value ([1]; Trichophyton sp. (rubrum, tonsurans interdigitale, mentagrophytes, concentricim, violaceum et al.), tinea corporis) was 0.01-8. The “MIC RANGE” value ([1]; Trichophyton sp. (rubrum, tonsurans interdigitale, mentagrophytes, et al.), tinea cruris) was 0.01-8, the “MIC RANGE” value ([1]; Trichophyton sp. (rubrum, tonsurans interdigitale, mentagrophytes, et al.), tinea pedis) was 0.01-8 and the “MIC RANGE” value ([1]; Trichophyton sp. (rubrum, tonsurans interdigitale, mentagrophytes, et al.), tinea unguium) was 0.01-8. The “MIC RANGE” value ([1]; Trichophyton sp. (tonsurans violaceum, soudanese, schoenleinii, mentagrophytes, verrucossum, et al.), tinea capitis) was 0.01-8, the absolute oral bioavailability (100 mg dose of itraconazole oral solution) was “approximately 55%” and the “reduction of Cmax and AUC in the fasting state vs after a light meal” value (in vivo) was 50-70%.
